Data reported in patent publication US20200291018A1, “TAM KINASE INHIBITORS” (SYROS PHARMACEUTICALS, INC., priority 2017, published 2020).

Assays:
TYRO3 = molecular target: T1, TYRO3 (Homo sapiens, UniProt Q06418); assay: TR-FRET kinase activity assay, TYRO3; assay type: biochemical; details: ATP at Km, 60 minutes
T1 sequence (Q06418 41-890): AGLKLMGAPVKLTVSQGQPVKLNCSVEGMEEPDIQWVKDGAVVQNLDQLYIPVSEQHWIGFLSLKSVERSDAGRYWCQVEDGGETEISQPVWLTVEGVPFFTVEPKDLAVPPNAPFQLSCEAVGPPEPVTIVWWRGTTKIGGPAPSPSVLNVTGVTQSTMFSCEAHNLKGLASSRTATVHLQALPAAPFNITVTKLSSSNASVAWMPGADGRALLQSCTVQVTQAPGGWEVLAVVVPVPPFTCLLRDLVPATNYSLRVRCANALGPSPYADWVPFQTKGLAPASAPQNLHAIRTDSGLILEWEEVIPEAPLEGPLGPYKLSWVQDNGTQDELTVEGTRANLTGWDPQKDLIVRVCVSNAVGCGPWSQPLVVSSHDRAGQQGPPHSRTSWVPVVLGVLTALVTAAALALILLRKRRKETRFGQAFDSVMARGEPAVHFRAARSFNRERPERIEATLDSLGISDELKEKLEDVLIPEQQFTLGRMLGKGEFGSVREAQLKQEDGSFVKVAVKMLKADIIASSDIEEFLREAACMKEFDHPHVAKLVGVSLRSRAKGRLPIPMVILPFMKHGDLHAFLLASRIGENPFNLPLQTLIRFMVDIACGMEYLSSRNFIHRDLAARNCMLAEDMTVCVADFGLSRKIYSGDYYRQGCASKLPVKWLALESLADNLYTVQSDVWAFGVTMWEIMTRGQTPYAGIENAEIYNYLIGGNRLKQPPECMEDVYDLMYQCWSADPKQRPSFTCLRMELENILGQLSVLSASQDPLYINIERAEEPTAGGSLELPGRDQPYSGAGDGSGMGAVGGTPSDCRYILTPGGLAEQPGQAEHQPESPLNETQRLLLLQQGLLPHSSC
Procedure: (§1) IC50 values for compound inhibition of AXL, FLT3, MERTK and TYRO3 activity were determined using a TR-FRET activity assay. A peptide substrate with a fluorescent label is phosphorylated on a tyrosine by each enzyme, where the now phosphorylated product is bound by a Europium-labeled antibody specific to that phosphorylation site. The proximity between the antibody and the substrate gives a signal known as TR-FRET. As the enzyme is inhibited by compound, less phosphorylated peptide product is made, causing a decrease in overall signal.
(§2) Activity assays were performed in a 384-well, small volume, black microplates in an active enzyme volume of 10 uL and final developed volume of 20 uL. Final assay conditions are 50 mM HEPES pH 7.5, 10 mM MgCl2, 1 mM EGTA, 0.01% Brij 35 and 1 mM DTT, all at RT. Enzyme, substrate-labeled peptide and compound are mixed, and then the reaction is initiated with the addition of ATP at Km concentration for each enzyme. The reaction is allowed to run 60 minutes and then quenched with a 12.5 mM EDTA (ethylenediamine tetraacetic acid) solution. The plate is then developed with the addition of Europium-labeled antibody for a final volume of 20 uL and is then incubated for 30 minutes in darkness. Plates are read in a PHERASTAR® plate reader. Data are analyzed in GraphPad PRISM.

FLT3 = molecular target: T2, FLT3 (Homo sapiens, UniProt P36888); assay: TR-FRET kinase activity assay, FLT3; assay type: biochemical; details: ATP at Km, 60 minutes
T2 sequence (P36888 27-993): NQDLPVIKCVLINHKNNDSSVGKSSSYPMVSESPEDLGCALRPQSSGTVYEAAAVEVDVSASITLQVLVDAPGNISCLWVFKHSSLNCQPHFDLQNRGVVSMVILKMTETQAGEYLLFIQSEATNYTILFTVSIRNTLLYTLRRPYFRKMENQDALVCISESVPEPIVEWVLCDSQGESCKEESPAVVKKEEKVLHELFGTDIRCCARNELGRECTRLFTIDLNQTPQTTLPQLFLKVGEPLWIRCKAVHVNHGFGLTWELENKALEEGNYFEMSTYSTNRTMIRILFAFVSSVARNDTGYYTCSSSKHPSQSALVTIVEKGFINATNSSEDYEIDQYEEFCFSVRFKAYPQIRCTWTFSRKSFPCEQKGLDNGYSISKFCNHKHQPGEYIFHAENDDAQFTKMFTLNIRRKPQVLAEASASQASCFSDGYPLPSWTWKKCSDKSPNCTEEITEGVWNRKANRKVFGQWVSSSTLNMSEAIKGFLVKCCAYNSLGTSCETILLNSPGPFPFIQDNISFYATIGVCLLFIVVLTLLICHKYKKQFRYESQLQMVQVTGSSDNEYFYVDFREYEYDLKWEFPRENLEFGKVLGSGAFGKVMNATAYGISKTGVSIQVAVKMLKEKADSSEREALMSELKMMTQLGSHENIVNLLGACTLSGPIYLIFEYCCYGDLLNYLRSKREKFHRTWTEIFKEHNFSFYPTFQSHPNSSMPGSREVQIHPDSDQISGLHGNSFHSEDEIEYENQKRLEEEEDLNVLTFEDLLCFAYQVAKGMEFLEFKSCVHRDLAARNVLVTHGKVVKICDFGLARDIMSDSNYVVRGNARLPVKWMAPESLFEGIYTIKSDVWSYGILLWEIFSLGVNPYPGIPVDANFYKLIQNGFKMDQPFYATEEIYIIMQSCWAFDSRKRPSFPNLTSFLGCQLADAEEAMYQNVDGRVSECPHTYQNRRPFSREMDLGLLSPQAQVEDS
Procedure: as §1, §2

For `O[C@H]1CC[C@H](c2cnc(OC3CCNCC3)c3cnc(NC4CCOCC4)nc32)CC1` [Compound 211], the IC50 (TYRO3) was 100 to 1000 nM and the IC50 (FLT3) was 100 to 1000 nM.
`CC(C)CNc1ncc2c(OC3CCNCC3)ncc([C@H]3CC[C@H](O)CC3)c2n1` [Compound 212] was tested, and the IC50 (TYRO3) was ≤ 100 nM and the IC50 (FLT3) was 100 to 1000 nM.
`O[C@H]1CC[C@H](c2cnc(OC3CCNCC3)c3cnc(N[C@@H]4CCOC4)nc32)CC1` [Compound 213] gave an IC50 (TYRO3) of 100 to 1000 nM and an IC50 (FLT3) of 1000 to 10000 nM.
In the case of `CCCC(C)Nc1ncc2c(O[C@@H]3CCCN(C)C3)ncc([C@H]3CC[C@H](O)CC3)c2n1` (stereo partly shown) [Compound 214], the IC50 (TYRO3) is reported as ≤ 100 nM and the IC50 (FLT3) is reported as 1000 to 10000 nM.
With `CCOc1ncc(C2CCN(C)CC2)c2nc(N[C@@H](C)CC)ncc12` [Compound 215] the IC50 (TYRO3) was ≤ 100 nM and the IC50 (FLT3) was 1000 to 10000 nM.
In the case of `O[C@H]1CC[C@H](c2cnc(OC3CCNCC3)c3cnc(N[C@H]4CCCOC4)nc32)CC1` [Compound 216], the IC50 (TYRO3) is reported as 100 to 1000 nM and the IC50 (FLT3) is reported as 1000 to 10000 nM.
`CC[C@H](C)Nc1ncc2c(NC3CCOCC3)ncc([C@H]3CC[C@H](O)CC3)c2n1` [Compound 217] was tested, and the IC50 (TYRO3) was ≤ 100 nM and the IC50 (FLT3) was 1000 to 10000 nM.
Compound `C[C@@H](Nc1ncc2c(OC3CCNCC3)ncc([C@H]3CC[C@H](O)CC3)c2n1)c1ccccc1` [Compound 218] has an IC50 (TYRO3) of 100 to 1000 nM and an IC50 (FLT3) of 1000 to 10000 nM.
With `CC[C@H](C)Nc1ncc2c(NC3CCN(C)CC3)ncc([C@H]3CC[C@H](O)CC3)c2n1` [Compound 220] the IC50 (TYRO3) was 100 to 1000 nM and the IC50 (FLT3) was 100 to 1000 nM.
With `CC[C@H](C)Nc1ncc2c(OC3CCN(C)CC3)ncc([C@H]3CC[C@H](O)CC3)c2n1` [Compound 221] the IC50 (TYRO3) was 100 to 1000 nM and the IC50 (FLT3) was 1000 to 10000 nM.
In the case of `CC[C@H](C)Nc1ncc2c(N3CC[C@@H](N(C)C)C3)ncc([C@H]3CC[C@H](O)CC3)c2n1` [Compound 222], the IC50 (TYRO3) is reported as ≤ 100 nM and the IC50 (FLT3) is reported as 1000 to 10000 nM.
Work on `CC[C@H](C)Nc1ncc2c(OC3C[C@H]4CC[C@@H](C3)O4)ncc([C@H]3CC[C@H](O)CC3)c2n1` (stereo partly shown) [Compound 223] yielded an IC50 (TYRO3) of 100 to 1000 nM and an IC50 (FLT3) of 100 to 1000 nM.
In the case of `O[C@H]1CC[C@H](c2cnc(OC3CCNCC3)c3cnc(NCCC(F)(F)F)nc32)CC1` [Compound 224], the IC50 (TYRO3) is reported as 100 to 1000 nM and the IC50 (FLT3) is reported as ≤ 100 nM.
`CC[C@H](C)Nc1ncc2c(=O)n(C3CCOCC3)cc([C@H]3CC[C@H](O)CC3)c2n1` [Compound 225] was tested, and the IC50 (TYRO3) was ≤ 100 nM and the IC50 (FLT3) was 1000 to 10000 nM.
In the case of `CC[C@H](C)Nc1ncc2c(OC3CCOCC3)ncc([C@H]3CC[C@H](O)CC3)c2n1` [Compound 226], the IC50 (TYRO3) is reported as 100 to 1000 nM and the IC50 (FLT3) is reported as 100 to 1000 nM.
For `CC[C@H](C)Nc1ncc2c(OC3CC(C)(C)N(C)C(C)(C)C3)ncc([C@H]3CC[C@H](O)CC3)c2n1` [Compound 227], the IC50 (TYRO3) was ≤ 100 nM and the IC50 (FLT3) was 100 to 1000 nM.
Compound `CCC(CC)Nc1ncc2c(OC3CCNCC3)ncc([C@H]3CC[C@H](O)CC3)c2n1` [Compound 228] has an IC50 (TYRO3) of 100 to 1000 nM and an IC50 (FLT3) of 1000 to 10000 nM.
Compound `CC[C@H](C)Nc1ncc2c(O[C@H]3CC[C@H](O)CC3)ncc([C@H]3CC[C@H](O)CC3)c2n1` [Compound 229] has an IC50 (TYRO3) of 100 to 1000 nM and an IC50 (FLT3) of 100 to 1000 nM.
Compound `CC[C@H](C)Nc1ncc2c(Cl)ncc([C@H]3CC[C@H](O)CC3)c2n1` [Compound 230] has an IC50 (TYRO3) of 100 to 1000 nM and an IC50 (FLT3) of 1000 to 10000 nM.
With `CC[C@H](C)NC1=NC2C([C@H]3CC[C@H](O)CC3)=CN(C(C)C)C(=O)C2C=N1` (stereo partly shown) [Compound 231] the IC50 (TYRO3) was ≤ 100 nM and the IC50 (FLT3) was 1000 to 10000 nM.
